The source of these data is patent publication US20260248788A1, “NEW COMPOUNDS AND TREATMENT OF RENAL CELL CARCINOMA” (TRUSTLIFE THERAPEUTICS INC., priority 2023, published 2026).

Usually IC50 stands for the point on the concentration scale where inhibition reaches its midpoint.

“Also recorded” adds a separate entry of the source.

Assay type in all cases: cell-based, human
Series [1] has as its system Caki-1 cells. In words: LDH cytotoxicity assay. Particulars: for cytotoxic effect and dose dependence: Caki-1, 10 nM-30 μM; for cytotoxicity (LDH assay): Caki-1, 10 μM; for cytotoxicity (LDH assay) / Ranking, Cytotoxicity (%): 1 day; for Ranking, Cytotoxicity (%): top five, LDH assay, 10 μM, rank 1 = highest; for cytotoxicity according to LDH assay (conclusion): Caki-1. The method, then:
(§1) Cell culture 2: Caki-1 was purchased from CLS Cell Lines Service (Germany). The cells were maintained in McCoy's 5A (modified) medium (16600082, Thermo Fisher Scientific, USA) and supplemented with 10% fetal bovine serum (FBS, F7524, Sigma-Aldrich), 1% Penicillin/Streptomycin (P4333, Sigma-Aldrich).
Lactate dehydrogenase (LDH) assay was performed with LDH Assay Kit (ab65393). […] 20 μl of media was analysed with LDH Assay Kit as per manufacturer's instruction.

In a further series the test system is BUB1B. As to the kind of experiment: Western blot of BUB1B in Caki-1 cells treated with TG-101209 derivatives. As to conditions: for expression levels of BUB1B (Western blot): Caki-1 cells, 5 μM of target drug, 1 day (FIG. 41, 56); for expression levels of BUB1B (summary statement): concentration not given. The method, then: as §1
The target drugs developed as alternatives to TG-101209, were dissolved in 0.1% DMSO (41639, Sigma-Aldrich). Caki-1 cells from cell culture 2 were seeded in a 6-well plate at 3×10^5 cells per well. […]
The cells were washed with PBS solution and then lysed with CelLytic M (C2978, Sigma-Aldrich) lysis buffer containing protease inhibitors (11836170001, Roche). The cell lysates were centrifuged at 12 000 rpm for 10 min and supernatants were collected. Protein Assay Dye Reagent (5000006, Bio-Rad) was used for the determination of protein concentration. The absorbance of the proteins was measured spectrophotometrically at 595 nm by a microplate reader (Hidex Sense Beta Plus). Protein electrophoresis was performed using Mini-PROTEAN® TGX™ Precast Gels (4561086, Bio-Rad) and then the separated proteins were transferred to a Trans-Blot Turbo Mini 0.2 μm PVDF Transfer Packs membrane (1704158, Bio-Rad) by using Trans-Blot® Turbo™ Transfer System (Bio-Rad). The membrane was blocked with 5% skim milk for 30 min at 4° C. with gentle rocking. After blocking, the membrane was treated with primary antibodies: Anti-BUB1B (HPA008419, Human Protein Atlas, Sweden) and Anti-Beta actin (ab8227, Abcam) as a loading control overnight at 4° C. on a rocking platform. After the treatment of primary antibodies, the membrane was washed three times with TBS-T buffer (A09-7500-100, Medicago). Then, Goat anti-Rabbit IgG-HRP (ab205718, Abcam) was treated as the secondary antibody for 30 min at 4° C. with gentle rocking.
(A western blot detects proteins with antibodies after separation by electrophoresis.)

Series [2] has as its system Caki-1 cells. As to the kind of experiment: Cell morphology (DIC images) of treated Caki-1 cells. As to conditions: Caki-1, 10 μM, 1 day; for effect on the cell morphology: DIC images (FIG. 52). The source says: The effect of treatment of Caki-1 cells with the target compounds was further evaluated by monitoring the cell morphology of treated cells, see FIG. 52.
Series [3] deals with Caki-1 cells. As to the kind of experiment: MTT cell viability assay. Particulars: for change of IC50 values after 2 days compared to 1 day treatment: Caki-1 (FIG. 53-54); for reduction in cell viability (MTT) / effect on cell viability (MTT): 1 day; for cell viability over the treatment period (MTT): 27 h, 48 h and 72 h (FIG. 55); for IC50 values compared with TG-101209: Caki-1, 1 and 2 days (FIG. 53-54); for cell viability of treated cells (summary statement) / reduction in cell viability according to MTT assay (conclusion): concentration not given; for reduction in cell viability according to MTT assay (conclusion): Caki-1. The method, then:
as §1
The cytotoxic effects of the TG-101209 and its alternatives on the Caki-1 cells were tested by MTT (Thiazolyl Blue Tetrazolium Bromide) method. 1.5×10^4 cells were seeded per well in a 96-well plate in 100 μL growth media. […] After the incubation period, 5 mg/ml MTT (M2128, Sigma-Aldrich) solution in PBS (10 μL) was added to each well. After 1 hour, the MTT solution and all media were removed from the wells. 100 μl of DMSO was added and mixed to dissolve the formazan crystals. Cell viability was analysed by measuring the absorbance of the dissolved formazan at a wavelength of 570 nm with a microplate reader (Hidex Sense Beta Plus).
(Tetrazolium assays rely on reduction of a dye to a coloured formazan, in cell work by metabolically active cells.)

As to `Cc1cnc(Nc2ccc(N3CCN(C)CC3)cc2)nc1Nc1cccc(S(=O)(=O)NC2CCC2)c1` [Compound M5, N-cyclobutyl-3-((5-methyl-2-((4-(4-methylpiperazin-1-yl)phenyl)amino)pyrimidin-4-yl)amino)benzenesulfonamide], in the series with Caki-1 cells [1], the “cytotoxic effect and dose dependence” value is reported as “dose dependent toxicity”; the “Ranking, Cytotoxicity (%)” value worked out at 2. Moreover, in the series with Caki-1 cells [1] (first batch), the “cytotoxicity (LDH assay)” value is “highest cytotoxicity”. Further, in the series on BUB1B, the “expression levels of BUB1B (Western blot)” value is “significantly lower the expression levels of BUB1B” and the “expression levels of BUB1B (summary statement)” value is given as “reduction of the expression levels of BUB1B”. Besides, in the series on Caki-1 cells [2], the “mechanism according to morphology evaluation” value is recorded as “cell growth inhibition mechanism” and the “effect on the cell morphology” value is “distinct effect on the cell morphology”. In addition, in the series with Caki-1 cells [3], the “change of IC50 values after 2 days compared to 1 day treatment” value is listed as “largest decrease”, the “IC50 values compared with TG-101209” value is “better IC50 values than TG-101209” and the “cell viability of treated cells (summary statement)” value (“cell viability of treated cells” below) is given as “especially low cell viability; also recorded: particularly low cell viability”. For the same compound, the “reduction in cell viability (MTT)” value in the series on Caki-1 cells [3] (Caki-1, 5 μM, first batch) is “the greatest”. In addition, in the series with Caki-1 cells [3] (Caki-1, 10 μM, first batch), the “effect on cell viability (MTT)” value is listed as “greatest reduction of cell viability”. Also, in the series with Caki-1 cells [3] (Caki-1, 10 μM), the “cell viability over the treatment period (MTT)” value is given as “larger decrease in cell viability than TG-101209”.

For the compound `Cc1cnc(Nc2ccc(C(=O)Nc3ccc(N4CCN(C)CC4)cc3)cc2)nc1Nc1cccc(S(=O)(=O)NC(C)(C)C)c1` [Compound M101N, 4-((4-((3-(N-(tert-butyl)sulfamoyl)phenyl)amino)-5-methylpyrimidin-2-yl)amino)-N-(4-(4-methylpiperazin-1-yl)phenyl)benzamide], the “cytotoxicity (LDH assay)” value with Caki-1 cells [1] (second batch) is “greatest cytotoxicity”. Further, the “cell death / toxicity (LDH)” value in the series on Caki-1 cells [1] (Caki-1, 10 and 30 μM) is “strong toxicity”. Also, in the series on Caki-1 cells [1] (concentration not given), the “cytotoxicity according to LDH assay (conclusion)” value is listed as “greatest cytotoxicity” and the “cytotoxicity (summary statement)” value is reported as “high cytotoxicity”. In addition, the “expression levels of BUB1B (Western blot)” value in the series on BUB1B is given as “did not affect the expression levels of BUB1B”. Moreover, in the series on Caki-1 cells [2], the “mechanism according to morphology evaluation” value is reported as “work as cytotoxic agents” and the “effect on the cell morphology” value is listed as “distinct effect on the cell morphology”. The “reduction in cell viability (MTT)” value in the series on Caki-1 cells [3] (Caki-1, 10 μM, second batch) is listed as “the greatest”. Moreover, in the series with Caki-1 cells [3] (Caki-1, 10 μM), the “cell viability over the treatment period (MTT)” value is “larger decrease in cell viability than TG-101209”. Further, in the series on Caki-1 cells [3], the “reduction in cell viability according to MTT assay (conclusion)” value is “greatest reduction in cell viability” and the “cell viability of treated cells” value was “particularly low cell viability; also recorded: significantly reduced cell viability”.

As to `COc1cc(Nc2ncc(C)c(Nc3cccc(S(=O)(=O)NC(C)(C)C)c3)n2)cc(OC)c1OC` [Compound M76, N-(tert-butyl)-3-((5-methyl-2-((3,4,5-trimethoxyphenyl)amino)pyrimidin-4-yl)amino)benzenesulfonamide], the “cytotoxic effect and dose dependence” value with Caki-1 cells [1] is recorded as “dose dependent toxicity”. Besides, in the series with Caki-1 cells [1] (concentration not given), the “cytotoxicity according to LDH assay (conclusion)” value was “greatest cytotoxicity”. Further, in the series with BUB1B, the “expression levels of BUB1B (Western blot)” value was “ability to lower the expression levels of BUB1B” and the “expression levels of BUB1B (summary statement)” value is “reduction of the expression levels of BUB1B”. Also, in the series with Caki-1 cells [2], the “mechanism according to morphology evaluation” value was “cell growth inhibition mechanism” and the “effect on the cell morphology” value is listed as “distinct effect on the cell morphology”. Further, in the series on Caki-1 cells [3], the “change of IC50 values after 2 days compared to 1 day treatment” value is “largest decrease”, the “IC50 values compared with TG-101209” value is given as “better IC50 values than TG-101209”, the “reduction in cell viability according to MTT assay (conclusion)” value is listed as “greatest reduction in cell viability” and the “cell viability of treated cells” value is on record as “especially low cell viability; also recorded: significantly reduced cell viability”. In addition, the “reduction in cell viability (MTT)” value with Caki-1 cells [3] (Caki-1, 10 μM, second batch) is given as “the greatest”. Moreover, in the series with Caki-1 cells [3] (Caki-1, 10 μM), the “cell viability over the treatment period (MTT)” value was “larger decrease in cell viability than TG-101209”. For the same compound, the “IC50 value after treatment for 1 day” value with Caki-1 cells [3] (Caki-1, doses 10 nM to 30 μM (FIG. 53)) was “lowest IC50 value”.

Take `Cc1ccc(Nc2ncc(C)c(Nc3ccc(N4CCN(C)CC4)cc3)n2)cc1S(N)(=O)=O` [Compound M123, 2-methyl-5-((5-methyl-4-((4-(4-methylpiperazin-1-yl)phenyl)amino)pyrimidin-2-yl)amino)benzenesulfonamide]: the “expression levels of BUB1B (summary statement)” value in the series on BUB1B was “reduction of the expression levels of BUB1B”. The “cell viability of treated cells” value in the series on Caki-1 cells [3] is listed as “particularly low cell viability; also recorded: significantly reduced cell viability”.

On to `COc1cc(Nc2ncc(C)c(Nc3cccc(S(=O)(=O)NC4CCC4)c3)n2)cc(OC)c1OC` [Compound M120, N-cyclobutyl-3-((5-methyl-2-((3,4,5-trimethoxyphenyl)amino)pyrimidin-4-yl)amino)benzenesulfonamide], for which the “expression levels of BUB1B (summary statement)” value with BUB1B is “reduction of the expression levels of BUB1B”. The “reduction in cell viability (MTT)” value in the series with Caki-1 cells [3] (Caki-1, 10 μM, second batch) was “the greatest”. Moreover, the “cell viability of treated cells” value in the series on Caki-1 cells [3] is reported as “especially low cell viability; also recorded: particularly low cell viability; also recorded: significantly reduced cell viability”.

Regarding `Cc1cnc(Nc2ccc(N3CCN(C)CC3)cc2)nc1Nc1cccc(S(=O)(=O)N2CCOCC2)c1` [Compound M7, 5-methyl-N2-(4-(4-methylpiperazin-1-yl)phenyl)-N4-(3-(morpholinosulfonyl)phenyl)pyrimidine-2,4-diamine], in the series with BUB1B, the “expression levels of BUB1B (Western blot)” value is given as “significantly lower the expression levels of BUB1B” and the “expression levels of BUB1B (summary statement)” value is reported as “reduction of the expression levels of BUB1B”. Besides, the “cell viability of treated cells” value with Caki-1 cells [3] was “especially low cell viability; also recorded: reduced cell viability”.

Turning to `Cc1ccc(Nc2ncc(C)c(Nc3cccc(S(=O)(=O)NC(C)(C)C)c3)n2)cc1Nc1nc(-c2cccnc2)cs1` [Compound M88, N-(tert-butyl)-3-((5-methyl-2-((4-methyl-3-((4-(pyridin-3-yl)thiazol-2-yl)amino)phenyl)amino)pyrimidin-4-yl)amino)benzenesulfonamide], in the series on BUB1B, the “expression levels of BUB1B (Western blot)” value was “significantly lower the expression levels of BUB1B” and the “expression levels of BUB1B (summary statement)” value was “reduction of the expression levels of BUB1B”. Also, the concentration for half-maximal inhibition (IC50) in the series with Caki-1 cells [3] (Homo sapiens, 24 h, Caki-1, 1 day (FIG. 43), text: after treatment with 5 μM) is more than 3 µM. Further, the “cell viability of treated cells” value in the series on Caki-1 cells [3] is on record as “especially low cell viability; also recorded: significantly reduced cell viability”.

On to `Cc1ccc(Nc2ncc(C)c(Nc3cccc(S(=O)(=O)NC(C)(C)C)c3)n2)cc1S(N)(=O)=O` [Compound M66, N-(tert-butyl)-3-((5-methyl-2-((4-methyl-3-sulfamoylphenyl)amino)pyrimidin-4-yl)amino)benzenesulfonamide], for which the “cytotoxicity (LDH assay)” value in the series with Caki-1 cells [1] (first batch) is “exhibited cytotoxicity”. In addition, in the series with Caki-1 cells [1], the “Ranking, Cytotoxicity (%)” value is listed as 4. For the same compound, in the series on BUB1B, the “expression levels of BUB1B (Western blot)” value is “significantly lower the expression levels of BUB1B” and the “expression levels of BUB1B (summary statement)” value is “reduction of the expression levels of BUB1B”. For the same compound, the “reduction in cell viability (MTT)” value in the series on Caki-1 cells [3] (Caki-1, 5 μM, first batch) is “the greatest”. Moreover, the “effect on cell viability (MTT)” value in the series on Caki-1 cells [3] (Caki-1, 10 μM, first batch) is “most profound effect”. Moreover, the “cell viability of treated cells” value in the series on Caki-1 cells [3] is recorded as “particularly low cell viability; also recorded: significantly reduced cell viability”.
